Results as given in patent US6462174B1, “Amorphous compound” (AstraZeneca AB, priority 2001, dated 2002).

Assays:
[1] = Thermal Mechanical Analysis (TMA); assay type: physicochemical; details: heating rate 10° C./min, 30-160° C.
Experimental: The method involves compressing 140 mg of material in a punch and die (3 mm) to 2 KN. The compressed pellet was then placed on the TMA and the 1.1 mm probe placed on the top face. A heating rate of 10° C./min was used and the sample was heated from 30-160° C.

[2] = Dynamic vapour sorption (DVS) stability test; assay type: physicochemical; details: first sorption process (Cycle 1 Sorp), FIG. 3
[3] = Differential Scanning Calorimetry (DSC); assay type: physicochemical; details: dry amorphous lisinopril
Experimental: Differential Scanning Calorimetry (DSC) was performed on approximately 0.5-3 mg sample, using a Mettler DSC820 instrument, according to standard methods, for example those described in Höhne et al. (1996) Differential scanning Calorimetry, Springer, Berlin.

[4] = Solubility in toluene (antisolvent); assay type: physicochemical
Experimental: When the volume was reduced to 100-150 ml, another portion of toluene was added and the procedure repeated.

[5] = cited from earlier work

glass transition temperature [1] [°C] | glass transition temperature (Tg) [3] [°C] | solubility in toluene [4] | Structure (SMILES) | physical stability to water-induced crystallisation (DVS) [2] | effective half-life of accumulation ([5]; multiple dosing) | time to peak serum concentrations ([5]; oral administration) [h]
129 | 125 | – | NCCCC[C@H](NC(CCc1ccccc1)C(=O)O)C(=O)N1CCC[C@H]1C(=O)O (stereo partly drawn) [amorphous lisinopril, (S)-1-[N^2-(1-carboxy-3-phenylpropyl]-L-lysyl]-L-proline] | no expulsion of absorbed water due to recrystallisation was observed | – | –
– | – | insoluble | NCCCC[C@H](NC(CCc1ccccc1)C(=O)O)C(=O)N1CCC[C@H]1C(=O)O (stereo partly drawn) [lisinopril, (S)-1-[N^2-(1-carboxy-3-phenylpropyl]-L-lysyl]-L-proline] | – | about 12.6 hours | ≤ 7
